Source: US20260347338A1, “PYRIMIDINE/PYRIDINE DERIVATIVES OR SALTS THEREOF AND PHARMACEUTICAL COMPOSITIONS COMPRISING THE SAME” (YUHAN CORPORATION, priority 2023, published 2026)
Counter-ions that a name gives are not always drawn.

Each compound was assayed against T1, human recombinant HPK1 (Homo sapiens, UniProt Q92918) (assay: Inhibitory activity against human recombinant HPK1 (TR-FRET)). Details: ULight-p70S6K peptide, ATP at Km, room temperature, 1 hour, 0.32 to 1000 nM compound.
T1 construct: purchased BPS Bioscience
T1 sequence (Q92918 whole entry): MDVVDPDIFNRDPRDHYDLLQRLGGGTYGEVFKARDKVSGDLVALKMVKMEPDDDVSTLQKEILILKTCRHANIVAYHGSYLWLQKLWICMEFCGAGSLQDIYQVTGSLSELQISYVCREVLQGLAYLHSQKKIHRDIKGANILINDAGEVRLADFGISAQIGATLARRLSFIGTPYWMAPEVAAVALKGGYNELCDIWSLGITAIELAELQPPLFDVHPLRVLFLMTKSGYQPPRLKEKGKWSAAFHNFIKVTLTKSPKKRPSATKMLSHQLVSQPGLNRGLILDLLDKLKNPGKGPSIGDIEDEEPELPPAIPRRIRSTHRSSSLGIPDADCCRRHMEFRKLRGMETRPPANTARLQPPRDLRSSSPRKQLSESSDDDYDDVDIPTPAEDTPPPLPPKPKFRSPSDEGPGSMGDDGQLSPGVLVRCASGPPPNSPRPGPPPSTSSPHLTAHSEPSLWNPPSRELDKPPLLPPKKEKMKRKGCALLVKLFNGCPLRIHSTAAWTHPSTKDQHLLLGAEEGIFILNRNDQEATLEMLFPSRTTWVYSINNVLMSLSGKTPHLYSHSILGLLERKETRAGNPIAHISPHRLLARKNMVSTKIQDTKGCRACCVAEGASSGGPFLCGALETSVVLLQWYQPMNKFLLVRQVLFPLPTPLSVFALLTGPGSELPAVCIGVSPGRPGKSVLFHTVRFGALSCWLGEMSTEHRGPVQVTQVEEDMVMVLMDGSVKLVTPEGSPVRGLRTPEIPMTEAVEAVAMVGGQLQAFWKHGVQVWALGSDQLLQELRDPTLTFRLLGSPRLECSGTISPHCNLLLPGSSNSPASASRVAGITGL
Assay type: biochemical
Outline: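 IC50 classes A–D use 10, 50 and 100 nM cut-offs, derived from TR-FRET signal inhibition relative to DMSO controls. Human recombinant HPK1 phosphorylated ULight-p70S6K peptide at Km ATP for 1 h, room temperature, pH 7.4; test range 0.32–1000 nM final, detection with Eu-labelled antibody after EDTA quench.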
Work on COc1cccc(F)c1-c1nccc(Nc2cc(N3CC[C@@H](NC(C)=O)C3)c(-c3cnn(C4CCOCC4)c3)cn2)n1 [Example 126, (R)-N-(1-(2-((2-(2-fluoro-6-methoxyphenyl)pyrimidin-4-yl)amino)-5-(1-(tetrahydro-2H-pyran-4-yl)-1H-pyrazol-4-yl)pyridin-4-yl)pyrrolidin-3-yl)acetamide] yielded an IC50 of 0.01 to 0.05 µM. COc1cccc(F)c1-c1nccc(Nc2cc(N3CCC(N(C)C)C3)c(-c3cnn(C4CCOCC4)c3)cn2)n1 (stereo not shown) [Example 44, N-(4-(3-(dimethylamino)pyrrolidin-1-yl)-5-(1-(tetrahydro-2H-pyran-4-yl)-1H-pyrazol-4-yl)pyridin-2-yl)-2-(2-fluoro-6-methoxyphenyl)pyrimidin-4-amine] showed an IC50 of 0.01 to 0.05 µM. With COc1cccc(F)c1-c1nc(Nc2cc(N3CCC[C@H](N)C3)c(-c3cnn(CC(F)(F)F)c3)cn2)ccc1N [Example 170, N^2-(4-((S)-3-aminopiperidin-1-yl)-5-(1-(2,2,2-trifluoroethyl)-1H-pyrazol-4-yl)pyridin-2-yl)-6-(2-fluoro-6-methoxyphenyl)pyridin-2,5-diamine hydrochloride] the IC50 was at most 0.01 µM. Compound COc1cccc(F)c1-c1nccc(Nc2cc(N3CCC[C@H](N)C3)c(-c3ccc(F)c(N(C)C)c3)cn2)n1 [Example 296, (S)-N-(4-(3-aminopiperidin-1-yl)-5-(3-(dimethylamino)-4-fluorophenyl)pyridin-2-yl)-2-(2-fluoro-6-methoxyphenyl)pyrimidin-4-amine hydrochloride] has an IC50 of at most 0.01 µM. Work on COc1cc(CN(C)C)cc(F)c1-c1nccc(Nc2cc(N3CCC[C@H](N)C3)c(C#CC3CCOCC3)cn2)n1 [Example 106, (S)-N-(4-(3-aminopiperidin-1-yl)-5-((tetrahydro-2H-pyran-4-yl)ethynyl)pyridin-2-yl)-2-(4-((dimethylamino)methyl)-2-fluoro-6-methoxyphenyl)pyrimidin-4-amine hydrochloride] yielded an IC50 of at most 0.01 µM. With COc1cccc(F)c1-c1nc(Nc2cc(N3CCC[C@H](O)C3)c(C#Cc3cnn(CC(F)F)c3)cn2)ccc1[N+](=O)[O-] [Example 221, (3S)-1-(5-((1-(2,2-difluoroethyl)-1H-pyrazol-4-yl)ethynyl)-2-((6-(2-fluoro-6-methoxyphenyl)-5-nitropyridin-2-yl)amino)pyridin-4-yl)piperidin-3-ol] the IC50 was at most 0.01 µM. Compound COc1cccc(F)c1-c1nccc(Nc2cc(N3CCC[C@H](N)C3)c(-c3cnn(C4CC(C)(C)OC(C)(C)C4)c3)cn2)n1 [Example 269, (S)-N-(4-(3-aminopiperidin-1-yl)-5-(1-(2,2,6,6-tetramethyltetrahydro-2H-pyran-4-yl)-1H-pyrazol-4-yl)pyridin-2-yl)-2-(2-fluoro-6-methoxyphenyl)pyrimidin-4-amine hydrochloride] has an IC50 of at most 0.01 µM. Compound COc1cccc(F)c1-c1nc(Nc2cc(N3CCC[C@H](N)C3)c(-c3cnn(CC(C)(C)O)c3)cn2)ccc1C#N [Example 319, 6-((4-((S)-3-aminopiperidin-1-yl)-5-(1-(2-hydroxy-2-methylpropyl)-1H-pyrazol-4-yl)pyridin-2-yl)amino)-2-(2-fluoro-6-methoxyphenyl)nicotinonitrile hydrochloride] has an IC50 of at most 0.01 µM. COc1cccc(F)c1-c1nc(Nc2cc(N3CCC[C@H](N)C3)c(-c3cnn(CC(F)F)c3)cn2)ccc1[N+](=O)[O-] [Example 152, 4-((S)-3-aminopiperidin-1-yl)-5-(1-(2,2-difluoroethyl)-1H-pyrazol-4-yl)-N-(6-(2-fluoro-6-methoxyphenyl)-5-nitropyridin-2-yl)pyridin-2-amine hydrochloride] was tested, and the IC50 was at most 0.01 µM. Compound COc1cccc(F)c1-c1nccc(Nc2cc(N3CCC[C@H](N)C3)c(-c3cnn(CCCN(C)C)c3)cn2)n1 [Example 236, (S)-N-(4-(3-aminopiperidin-1-yl)-5-(1-(3-(dimethylamino)propyl)-1H-pyrazol-4-yl)pyridin-2-yl)-2-(2-fluoro-6-methoxyphenyl)pyrimidin-4-amine hydrochloride] has an IC50 of at most 0.01 µM. COc1cccc(F)c1-c1nccc(Nc2cc(N3CCC[C@H](O)C3)c(-c3ccc(CN4CCC(N(C)C)C4)nc3)cn2)n1 (stereo partly drawn) [Example 48, (3S)-1-(6′-((3-(dimethylamino)pyrrolidin-1-yl)methyl)-6-((2-(2-fluoro-6-methoxyphenyl)pyrimidin-4-yl)amino)-[3,3′-bipyridin]-4-yl)piperidin-3-ol] showed an IC50 of at most 0.01 µM. In the case of COc1cccc(F)c1-c1nccc(Nc2cc(N3CCCC(C(N)=O)C3)c(-c3cnn(C4CCOCC4)c3)cn2)n1 (stereo not shown) [Example 34, 1-(2-((2-(2-fluoro-6-methoxyphenyl)pyrimidin-4-yl)amino)-5-(1-(tetrahydro-2H-pyran-4-yl)-1H-pyrazol-4-yl)pyridin-4-yl)piperidin-3-carboxamide], the IC50 is reported as 0.01 to 0.05 µM. With COc1cccc(F)c1-c1nccc(Nc2cc(N3CCC[C@H](N)C3)c(-c3cnn(CC4CC(F)(F)C4)c3)cn2)n1 [Example 245, (S)-N-(4-(3-aminopiperidin-1-yl)-5-(1-((3,3-difluorocyclobutyl)methyl)-1H-pyrazol-4-yl)pyridin-2-yl)-2-(2-fluoro-6-methoxyphenyl)pyrimidin-4-amine hydrochloride] the IC50 was at most 0.01 µM. Compound COc1cccc(F)c1-c1nc(Nc2cc(N3CCC[C@H](N)C3)c(-c3cnn(C4CCOCC4)c3)cn2)ccc1N [Example 181, N^2-(4-((S)-3-aminopiperidin-1-yl)-5-(1-(tetrahydro-2H-pyran-4-yl)-1H-pyrazol-4-yl)pyridin-2-yl)-6-(2-fluoro-6-methoxyphenyl)pyridin-2,5-diamine hydrochloride] has an IC50 of at most 0.01 µM. O[C@H]1CCCN(c2cc(Nc3ccnc(-c4ccn5ncnc5c4)n3)ncc2-c2cnn(C3CCOCC3)c2)C1 [Example 26, (S)-1-(2-((2-([1,2,4]triazolo[1,5-a]pyridin-7-yl)pyrimidin-4-yl)amino)-5-(1-(tetrahydro-2H-pyran-4-yl)-1H-pyrazol-4-yl)pyridin-4-yl)piperidin-3-ol] was tested, and the IC50 was 0.05 to 0.1 µM. With COc1cccc(F)c1-c1nccc(Nc2cc(N3CCC4(CCNC4)CC3)c(-c3cnn(C4CCOCC4)c3)cn2)n1 [Example 92, N-(4-(2,8-diazaspiro[4.5]decan-8-yl)-5-(1-(tetrahydro-2H-pyran-4-yl)-1H-pyrazol-4-yl)pyridin-2-yl)-2-(2-fluoro-6-methoxyphenyl)pyrimidin-4-amine hydrochloride] the IC50 was at most 0.01 µM. With COCCOc1ccc(-c2cnc(Nc3ccnc(-c4c(F)cccc4OC)n3)cc2N2CCC[C@H](N)C2)cn1 [Example 230, (S)-4-(3-aminopiperidin-1-yl)-N-(2-(2-fluoro-6-methoxyphenyl)pyrimidin-4-yl)-6′-(2-methoxyethoxy)-[3,3′-bipyridin]-6-amine] the IC50 was at most 0.01 µM. COc1cccc(F)c1-c1nc(Nc2cc(N3CCC[C@H](N)C3)c(-c3cnn(CC4CC4)c3)cn2)ccc1C#N [Example 330, 6-((4-((S)-3-aminopiperidin-1-yl)-5-(1-(cyclopropylmethyl)-1H-pyrazol-4-yl)pyridin-2-yl)amino)-2-(2-fluoro-6-methoxyphenyl)nicotinonitrile hydrochloride] showed an IC50 of at most 0.01 µM. In the case of COc1cccc(F)c1-c1nc(Nc2cc(N3CCC[C@H](O)C3)c(C(=O)N[C@@H]3CCN(C)C3)cn2)ccc1[N+](=O)[O-] [Example 203, 6-((6-(2-fluoro-6-methoxyphenyl)-5-nitropyridin-2-yl)amino)-4-((S)-3-hydroxypiperidin-1-yl)-N-((R)-1-methylpyrrolidin-3-yl)nicotinamide], the IC50 is reported as at most 0.01 µM. With COc1c(F)ccc(F)c1-c1nccc(Nc2cc(N3CCC[C@H](O)C3)c(-c3cnn(C4CCOCC4)c3)cn2)n1 [Example 23, (S)-1-(2-((2-(3,6-difluoro-2-methoxyphenyl)pyrimidin-4-yl)amino)-5-(1-(tetrahydro-2H-pyran-4-yl)-1H-pyrazol-4-yl)pyridin-4-yl)piperidin-3-ol] the IC50 was 0.01 to 0.05 µM. Compound COc1cccc(F)c1-c1nccc(Nc2cc(N3CCC[C@H](O)C3)c(-c3ccc(C4CCOCC4)cc3)cn2)n1 [Example 18, (S)-1-(2-((2-(2-fluoro-6-methoxyphenyl)pyrimidin-4-yl)amino)-5-(4-(tetrahydro-2H-pyran-4-yl)phenyl)pyridin-4-yl)piperidin-3-ol] has an IC50 of at most 0.01 µM. COc1cccc(F)c1-c1nccc(Nc2cc(N3C[C@@H](C)C[C@H](N)C3)c(-c3cnn(C(F)F)c3)cn2)n1 [Example 205, N-(4-((3S,5S)-3-amino-5-methylpiperidin-1-yl)-5-(1-(difluoromethyl)-1H-pyrazol-4-yl)pyridin-2-yl)-2-(2-fluoro-6-methoxyphenyl)pyrimidin-4-amine hydrochloride] was tested, and the IC50 was at most 0.01 µM. Work on COc1cccc(F)c1-c1nc(Nc2cc(N3CCC[C@H](N)C3)c(-c3cnn(C(F)F)c3)cn2)ccc1S(C)(=O)=O [Example 315, 4-((S)-3-aminopiperidin-1-yl)-5-(1-(difluoromethyl)-1H-pyrazol-4-yl)-N-(6-(2-fluoro-6-methoxyphenyl)-5-(methylsulfonyl)pyridin-2-yl)pyridin-2-amine hydrochloride] yielded an IC50 of at most 0.01 µM. COc1cccc(F)c1-c1nccc(Nc2cc(N3CCC[C@H](N)C3)c(-c3cnc4c(c3)OCC(=O)N4C)cn2)n1 [Example 274, (S)-7-(4-(3-aminopiperidin-1-yl)-6-((2-(2-fluoro-6-methoxyphenyl)pyrimidin-4-yl)amino)pyridin-3-yl)-4-methyl-2H-pyrido[3,2-b][1,4]oxazin-3(4H)-one hydrochloride] showed an IC50 of at most 0.01 µM. Compound COc1cccc(F)c1-c1nccc(Nc2cc(N3CCC[C@H](N)C3)c(-c3cccc(C(=O)N(C)C)c3)cn2)n1 [Example 280, (S)-3-(4-(3-aminopiperidin-1-yl)-6-((2-(2-fluoro-6-methoxyphenyl)pyrimidin-4-yl)amino)pyridin-3-yl)-N,N-dimethylbenzamide hydrochloride] has an IC50 of at most 0.01 µM.
